Entries after “also recorded” stand apart in the source; their conditions may differ.

Experimental findings from patent US11155668B2, “Contact-killing, QAC functionalized thermoplastic polyurethane for catheter applications” (THE UNIVERSITY OF AKRON, priority 2017, dated 2021) are described below.

Assay [1] relates to E. coli. The assay is described as follows: Contact-killing assay (adapted from ISO 22196) on allyl-TPU blade-coated samples modified with Qx-SH. The class given is cell-based, Escherichia coli (ATCC 25922). Conditions: for log reduction in E. coli compared to the negative control / reduction in E. coli compared to the negative control: 24 h contact-killing assay; for Mean CFU/Sample Recovered, E. coli: n = 2, negative control polypropylene 2.04 (±0.06) × 10^6. The protocol:
(§1) To functionalize the allyl-TPU blade-coated samples with Qx-SH reagents, thiol-ene reactions were performed using the same procedure described for rhodamine-SH. Briefly, blade-coated films of allyl-TPU (250 μm thick, 2.0 cm diameter, ca. 110 mg, 20 μmol allyl) were submerged in 2 mL of an Ar purged (30 min) aqueous solution containing Qx-SH (10.0 mM) and LAP (5.0 mM), and allowed to pre-soak for 30 min under Ar. UV-treated samples were irradiated for 30 min (λ=365 nm, I=1.2 mW·cm^−2) while phys. ads. samples were kept in the absence of UV light for 30 min to control for any antimicrobial activity that is contributed by non-covalently attached QAC. Following treatment, the dye/photoinitiator solutions were drawn up and discarded, and the samples were rinsed with 5 mL of DI water (3×) then submerged in 5 mL of DI water. The samples were further rinsed with 10% EtOH (3×) and soaked in 10% EtOH for 15 min (3×), rinsing with 10% EtOH in between each soak.
(§2) For antimicrobial testing, blade-coated samples and catheter tubing of allyl-TPU were sterilized by EtO sterilization using an Anprolene benchtop sterilizer (Anderson Products, Inc., Haw River, N.C.) following the manufacturer's protocol to deliver approximately 0.5 cc·L^−1 of EtO gas over a 12 h sterilization cycle at 35% humidity and room temperature, followed by a 48 h purge under vacuum. The bacterial strains used in this study included Staphylococcus epidermidis (ATCC 12228), Staphylococcus aureus (25923), Escherichia coli (ATCC 25922), Pseudomonas aeruginosa (ATCC 27853), Enterococcus faecalis (ATCC 29212), and methicillin-resistant Staphylococcus aureus (MRSA) (ATCC BAA-41).
The contact-killing assay was performed on physically adsorbed (phys. ads.), and UV-treated blade-coated samples modified with a series of Qx-SH reagents using a method adapted from ISO 22196. See, International Organization for Standardization. Measurement of antibacterial activity on plastics and other non porous surfaces (ISO 22196:2011), the disclosure of which is incorporated herein by reference in its entirety. Briefly, the samples were inoculated with same day cultures of select bacteria (e.g. E. coli, S. epidermidis) in dilute nutrient media (0.2% tryptic soy broth (TSB) in 1× phosphate buffered saline (PBS)) at approximately 150 colony-forming units (CFU)·mm^−2. Generally, 35 uL of 8.5×10^5 CFU/mL cultures were dispersed across the surface of the sample using sterile polypropylene cover films (area=198 mm^2). […] Following incubation, surviving cells were recovered from the samples using vigorous agitation (i.e. vortexing for 20 s in PBS). Surviving cells were enumerated via 10-fold series dilution and plating 100 μL onto tryptic soy agar (TSA), incubating overnight and then plate counting CFU. The mean CFU recovered per sample (CFU/sample) were calculated by accounting for dilutions. Internal controls samples of polypropylene and chlorhexidine treated with polypropylene were included in the assay.

For assay [2], the system named is MRSA. Described as above. The class given is cell-based. To be noted: n = 1, negative control polypropylene 1.51 × 10^5. The protocol: as §1, §2
(§3) The contact-killing assay was performed on physically adsorbed (phys. ads.), and UV-treated blade-coated samples modified with a series of Qx-SH reagents using a method adapted from ISO 22196. See, International Organization for Standardization. Measurement of antibacterial activity on plastics and other non porous surfaces (ISO 22196:2011), the disclosure of which is incorporated herein by reference in its entirety. Briefly, the samples were inoculated with same day cultures of select bacteria (e.g. E. coli, S. epidermidis) in dilute nutrient media (0.2% tryptic soy broth (TSB) in 1× phosphate buffered saline (PBS)) at approximately 150 colony-forming units (CFU)·mm^−2. Generally, 35 uL of 8.5×10^5 CFU/mL cultures were dispersed across the surface of the sample using sterile polypropylene cover films (area=198 mm^2). Inoculated samples were incubated in a humidified room air incubator (36° C., ca. 80% rel. humidity) for 20 h. Following incubation, surviving cells were recovered from the samples using vigorous agitation (i.e. vortexing for 20 s in PBS). Surviving cells were enumerated via 10-fold series dilution and plating 100 μL onto tryptic soy agar (TSA), incubating overnight and then plate counting CFU. The mean CFU recovered per sample (CFU/sample) were calculated by accounting for dilutions. Internal controls samples of polypropylene and chlorhexidine treated with polypropylene were included in the assay.

The subject of assay [3] is P. aeruginosa. The description is as above. The class given is cell-based, Pseudomonas aeruginosa (ATCC 27853). Conditions: for Mean CFU/Sample Recovered, P. aeruginosa: n = 1, negative control polypropylene 7.94 × 10^6. The protocol: as §1, §2, §3
Assay [4] deals with S. aureus. The assay is described as follows: Live/dead fluorescence assay on blade-coated samples modified with Q8-SH. The class given is cell-based, Staphylococcus aureus (25923). To be noted: within 5 min. The protocol:
as §2
A live/dead assay was performed using overnight cultures of E. coli grown in TSB and S. aureus grown in Mueller-Hinton broth (MH). The cells were washed with PBS (3×), resuspended in PBS, and diluted to obtain an OD600=0.15 (measured using a Hach DR2800 Spectrophotometer, λ=600 nm). The bacterial suspensions (1.0 mL) were stained with 2.0 μL of a dye mixture containing equal portions of 3.34 mM SYTO 9 and 20 mM propidium iodide (L7012 LIVE/DEAD™ BACLIGHT™ Bacterial Viability Kit, ThermoFisher Scientific) and allowed to incubate at room temperature in the dark for 15 min. […] Live/dead microscopy was performed using an IX81 inverted microscope (Olympus, Center Valley, Pa.) and images were processed and quantified using ImageJ software.

Assay [5] concerns E. coli. Described as above. The class given is cell-based, Escherichia coli (ATCC 25922). To be noted: for E. coli killed: at 10 min. On the procedure: as §2
A live/dead assay was performed using overnight cultures of E. coli grown in TSB and S. aureus grown in Mueller-Hinton broth (MH). The cells were washed with PBS (3×), resuspended in PBS, and diluted to obtain an OD600=0.15 (measured using a Hach DR2800 Spectrophotometer, λ=600 nm). The bacterial suspensions (1.0 mL) were stained with 2.0 μL of a dye mixture containing equal portions of 3.34 mM SYTO 9 and 20 mM propidium iodide (L7012 LIVE/DEAD™ BACLIGHT™ Bacterial Viability Kit, ThermoFisher Scientific) and allowed to incubate at room temperature in the dark for 15 min. Then, 10 μL of stained bacterial suspension was placed on a glass slide and covered with either untreated, phys. ads., or UV-treated samples modified with Q8-SH for 5 min (S. aureus) or 10 min (E. coli) before imaging. Live/dead microscopy was performed using an IX81 inverted microscope (Olympus, Center Valley, Pa.) and images were processed and quantified using ImageJ software.

The mark [6] stands for this setting: UV-treated samples, within 10 min, OD600=0.15.

On to `CCCCCCCC[N+](C)(C)CCCCCCCCOC(=O)CCS.[Cl-]` [Q8-SH], for which the “log reduction in E. coli compared to the negative control” value in assay [1] (UV-treated samples) and in assay [1] (phys. ads. samples) was 6 log in each case. In addition, the “reduction in E. coli compared to the negative control” value in assay [1] (UV-treated samples) and in assay [1] (phys. ads. samples) was 99.9999% each time. For the same compound, the “Mean CFU/Sample Recovered, E. coli” value in assay [1] (UV-treated samples) and in assay [1] (phys. ads. samples) was 0.00 ± 0.00 CFU/Sample each time. Moreover, the “Mean CFU/Sample Recovered, MRSA” value in assay [2] (UV-treated samples) and in assay [2] (phys. ads. samples) was 0.00 CFU/Sample in each case. Also, the “reduction of P. aeruginosa” value in assay [3] (UV-treated samples) and in assay [3] (phys. ads. samples) was “complete reduction” each time. Further, the “Mean CFU/Sample Recovered, P. aeruginosa” value in assay [3] (UV-treated samples) and in assay [3] (phys. ads. samples) was 0.00 CFU/Sample throughout. The “portion of S. aureus killed” value was “ca. 75%” in assay [4] (UV-treated samples) and “ca. 50%” in assay [4] (phys. ads. samples). Moreover, in assay [4] (setting [6]), the “S. aureus inoculum killed (in words)” value was “nearly all; also recorded: majority”. The E. coli killed in assay [5] (UV-treated samples) came to 90%; in assay [5] (phys. ads. samples) it was 5%. Besides, the “E. coli inoculum killed (in words)” value in assay [5] (setting [6]) is recorded as “nearly all; also recorded: majority”.
